Non-standard residues stand in square brackets, D forms with d. No end group written: not given here. DAP = diaminopimelic acid

Common to all, as to assay type: cell-based, human
The subject of assay [1] is 293. The assay is described as follows: Apoptosis (PI staining), 293 cells stably expressing Nod1. As to conditions: 293, Nod1 stably expressed; treatment as labelled. On the procedure:
(§1) Cell viability assays. Propidium iodide exclusion assay: Cells were stimulated as indicated for 2 days. Subsequently, cells were harvested, washed twice in FACS buffer (PBS containing 1% FCS and 0.1% NaN3) and resuspended in propidium iodide (PI)-containing FACS buffer (4 ug/ml). The extent of cell death was analyzed with a FACSCalibur flow cytometer (Becton Dickinson, Mountain View, Calif.). DAPI staining: MCF-7 cells were plated in chamber slides, and stimulated for 2 days. Cells were washed with PBS and apoptotic nuclei were stained with 1 μg/ml DAPI (Sigma Chemical Co., St. Louis, Mo.). Cells were fixed in 4% paraformaldehyde and examined by fluorescence microscopy.
(§2) To determine if Nod1-dependent apoptosis occurs in other human cell lines, a series of epithelial cell lines were examined where Nod1 was stably expressed to enhance sensitivity to activation of the Nod1 pathway. Cells were treated with TNFα (T) and γTriDAP (γ) in the presence or absence of CHX (C) and monitored for viability by PI staining as a measure of apoptosis (Table 1).

The next assay concerns MCF-7 cells. The assay is described as follows: Propidium iodide exclusion cell death assay, wild-type (parental/Blasto) MCF-7 cells. As to conditions: for cell death / apoptosis: wild type cells, agent alone. On the procedure:
as §1
(§3) To further investigate the role of Nod1 in apoptosis, a variety of cell types were incubated with the Nod1 ligand, […] (γTriDAP), which specifically activates Nod1. The cell types tested included the parental MCF-7 cell line, the Nod1-deficient MCF-7C20 clone, and a cell line engineered to contain an additional human Nod1 allele (MCF-7Nod1) so that Nod1 was over-expressed. To determine whether the resistance of C20 cells to γTriDAP-induced apoptosis resulted from the absence of Nod1, human Nod1 was stably expressed in MCF-7 C20 cells to produce Nod1-sufficient C20 cells (C20/Nod1). As another control, the parental MCF-7 cell line was transfected with an empty retroviral vector to generate MCF-7 Blasto cells. Cells were treated with γTriDAP in the presence or absence of cycloheximide (CHX) and cell death was then determined by propidium iodide staining and flow cytometry.

A further assay deals with MCF-7 Nod1 cells. Nature of the assay: Propidium iodide exclusion cell death assay, MCF-7 cells over-expressing Nod1. The conditions noted are these: MCF-7Nod1 cells, cycloheximide and γTriDAP, 48 h treatment. The procedure:
as §1, §3

In assay [2] the test system is 293. Nature of the assay: IL-8 production, 293 cells stably expressing Nod1. As to conditions: 293, Nod1 stably expressed; treatment as labelled.
The subject of the next assay is JNK. The assay is described as follows: JNK phosphorylation in MCF-7 RIP2 transfectants. The text has this:
FIG. 7A-C illustrate that both wild-type RIP2 and a kinase-deficient (KD) mutant of RIP2 are functional in the NOD1 apoptosis pathway. However, RIP2 lacking the CARD domain acts as a dominant negative inhibitor of NOD1 signaling. FIG. 7A graphically illustrates the percentage of cells that were apoptotic in populations of wild type RIP2, RIP2 KD and RIP2 ΔCARD cells. MCF-7 cells were stably transfected with wild type Myc-RIP2, Myc-RIP2 KD, and Myc-RIP2 ΔCARD and were left untreated or were treated with γTriDAP in the presence or absence of CHX (3 ug/ml) for 48 h. Cells were incubated with PI and apoptotic cell death was measured by flow cytometry. […] FIG. 7C illustrates γTriDAP-induction of phosphorylation of JNK in RIP2 wild types, MCF-7 RIP2 KD, and RIP2 ΔCARD cells.
The effect of RIP2 expression on γTriDAP-induced JNK phosphorylation was also examined (FIG. 7C).

The subject of the next assay is MCF-7 C20/Nod1 cells. Nature of the assay: Propidium iodide exclusion apoptosis assay, estrogen/tamoxifen studies. The conditions noted are these: γTriDAP-induced, C20/Nod1 cells.
Description: FIG. 12A-C illustrates that estrogen increases γTriDAP-induced apoptosis and tamoxifen inhibits γTriDAP-induced apoptosis in various MCF-7 tumor cell lines. FIG. 12A graphically illustrates the percent apoptosis in MCF-7 Blasto, MCF-7 C20 and MCF-7 C20/Nod1 cells cultured in increasing amounts or estrogen and either cycloheximide (CHX) or CHX plus γTriDAP (γTri). FIG. 12B graphically illustrates the percent apoptosis in MCF-7 Blasto, MCF-7 C20 and MCF-7 C20/Nod1 cells cultured in increasing amounts of tamoxifen and either cycloheximide (CHX) or CHX plus γTriDAP (γTri). For the estrogen studies, MCF-7 cells were cultured in charcoal-treated medium and stimulated with γTriDAP/CHX in the presence of increasing concentrations of estrogen (E2) and cell viability was measured by propidium iodide (PI) exclusion. For the tamoxifen studies, cells were treated with tamoxifen prior to addition of γTriDAP/CHX and cell viability measured by PI exclusion. […] Total protein extracts from MCF-7 Blasto, MCF-7 C20 and MCF-7 C20/Nod1 cells and from cells isolated from tumors were analyzed by immunoblotting using antibody against estrogen receptor (ERα), and ERK2 as loading control.
as §1
To determine whether the presence of estrogens modulates Nod1-induced apoptotic pathway, cells were cultured in medium containing charcoal-treated serum.

The test system of the next assay is A431. Nature of the assay: Apoptosis (PI staining), A431 cells stably expressing Nod1. The conditions noted are these: A431, Nod1 stably expressed; treatment as labelled. The procedure:
as §1, §2

In another assay the test system is MCF-7 Nod2 cells. Nature of the assay: Apoptosis (PI, flow cytometry) in MCF-7 cells over-expressing Nod2. The conditions noted are these: 20 ug/ml plus CHX, 48 h. On the procedure:
In FIG. 5A, MCF-7 Blasto, MCF-7 Nod1 and MCF-7 Nod2 were treated with the NOD1 ligand γTriDAP or the Nod2 ligand muramyl dipeptide (MDP)(20 ug/ml each) in the presence or absence of CHX for 48 h. Cells were then incubated with PI and apoptotic cell death was measured by flow cytometry. […] In FIG. 5B, expression of NOD1 and NOD2 was confirmed by Western blot analysis using anti-Myc antibodies for detection of the recombinant proteins. […] MCF-7 Blasto, MCF-7 Nod1 and MCF-7 Nod2 cells were stimulated with γTriDAP or MDP in the presence or absence of CHX (0.5 ug/ml) for 24 h. Cell supernatants were then harvested and assayed for IL-8 secretion.
Cell viability assays. Propidium iodide exclusion assay: Cells were stimulated as indicated for 2 days. […] The extent of cell death was analyzed with a FACSCalibur flow cytometer (Becton Dickinson, Mountain View, Calif.). […] Cells were fixed in 4% paraformaldehyde and examined by fluorescence microscopy.
Experiments were also performed to ascertain whether activation of Nod2 by its specific activator, muramyl dipeptide (MDP), would initiate apoptosis in parental MCF-7 cells or in MCF-7 cells over-expressing Nod2 (MCF-7 Nod2). Thus, γTriDAP or MDP were added to each of these lines and apoptosis (FIG. 5A) and IL-8 production (FIG. 5C) were measured. […]
Background: In flow cytometry, cells or beads pass a laser one at a time.

As for “D-Ala-L-Glu-Diaminopimelic acid ([dA]-Glu-[DAP]; also: Glu joined to DAP through its gamma carboxyl (γTriDAP))”, the apoptosis result in the assay with 293 [1] is “resistant”; with MCF-7 C20/Nod1 cells (with steroids) it was 80%; with MCF-7 C20/Nod1 cells (without steroids (charcoal-treated serum)), 10%; with A431, “only undergo apoptosis when γTriDAP was added together with TNFα and CHX”; in the assay on MCF-7 Nod2 cells, “produced cell death”. Moreover, the results for the “cell death / apoptosis” value in the assay with MCF-7 cells and in the assay on MCF-7 cells (listed as 7-TriDAP) were “No cell death” and “did not induce apoptosis”, respectively. The cell death result in the assay on MCF-7 cells (wild-type MCF-7, γTriDAP 50 ug/ml in the presence of cycloheximide 3 ug/ml, 48 h) is recorded as “about 25%”; in the assay with MCF-7 Nod1 cells, approximately 60%. Also, in the assay with 293 [2], the “IL−8 Production” value is “do release IL-8”. Moreover, the “phosphorylation of JNK” value was “induced phosphorylation of JNK” in the assay with JNK (MCF-7 expressing wild type RIP2 or RIP2 KD, in the presence of cycloheximide, 2 h) and “no such effect” with JNK (RIP2ΔCARD cells, with cycloheximide).

Source of the values: patent US20090028795A1, “NOD1 as an Anti-Tumor Agent” (priority 2005, published 2009).
